Laboratory results: ChEMBL document CHEMBL5223094, “Recent advancements in chromone as a privileged scaffold towards the development of small molecules for neurodegenerative therapeutics” (RSC Med Chem, 2022)

Assays:
[1] = biological target: T1, Amine oxidase [flavin-containing] A (Homo sapiens, UniProt P21397); assay: Inhibition of recombinant human MAO-A using tyramine as substrate preincubated for 30 mins followed by substrate addition and measured after 30 mins by amplex red reagent based fluorometric method
T1 sequence (P21397 whole entry): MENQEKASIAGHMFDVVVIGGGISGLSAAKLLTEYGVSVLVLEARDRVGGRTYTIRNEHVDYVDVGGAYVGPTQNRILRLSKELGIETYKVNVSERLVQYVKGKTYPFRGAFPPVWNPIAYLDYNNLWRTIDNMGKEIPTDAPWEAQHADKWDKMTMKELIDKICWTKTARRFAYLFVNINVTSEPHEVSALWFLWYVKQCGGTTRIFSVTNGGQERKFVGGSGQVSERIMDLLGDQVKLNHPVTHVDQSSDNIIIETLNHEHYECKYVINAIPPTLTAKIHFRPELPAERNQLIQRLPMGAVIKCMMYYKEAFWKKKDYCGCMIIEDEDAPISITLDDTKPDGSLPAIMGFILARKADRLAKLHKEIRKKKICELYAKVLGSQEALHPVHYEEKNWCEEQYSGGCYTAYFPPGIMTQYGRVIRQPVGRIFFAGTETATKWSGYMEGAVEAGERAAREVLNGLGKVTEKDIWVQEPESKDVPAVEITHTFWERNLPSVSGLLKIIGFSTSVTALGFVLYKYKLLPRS

[2] = biological target: T2, Amine oxidase [flavin-containing] B (Homo sapiens, UniProt P27338); assay: Inhibition of recombinant human MAO-B using tyramine as substrate preincubated for 30 mins followed by substrate addition and measured after 30 mins by amplex red reagent based fluorometric method
T2 sequence (P27338 whole entry): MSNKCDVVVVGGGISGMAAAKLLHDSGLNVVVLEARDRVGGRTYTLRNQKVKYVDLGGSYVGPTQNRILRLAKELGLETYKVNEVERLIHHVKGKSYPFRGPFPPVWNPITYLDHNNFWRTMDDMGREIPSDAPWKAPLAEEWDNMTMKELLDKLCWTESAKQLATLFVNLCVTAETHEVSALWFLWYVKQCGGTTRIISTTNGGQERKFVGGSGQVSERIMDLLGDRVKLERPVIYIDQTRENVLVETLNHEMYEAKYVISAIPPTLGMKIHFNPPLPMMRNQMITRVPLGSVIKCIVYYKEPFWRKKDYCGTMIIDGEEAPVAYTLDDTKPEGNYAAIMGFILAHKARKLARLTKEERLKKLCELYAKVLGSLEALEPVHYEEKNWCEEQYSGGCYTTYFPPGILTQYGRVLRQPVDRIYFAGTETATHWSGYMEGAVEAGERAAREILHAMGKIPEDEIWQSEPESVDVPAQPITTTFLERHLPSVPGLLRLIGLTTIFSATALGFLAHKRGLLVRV

[3] = biological target: T3, Acetylcholinesterase (Homo sapiens, UniProt P22303); assay: Inhibition of recombinant human AchE using acetylthiocholine iodide as substrate and measured upto 2 mins by Ellman's method
T3 sequence (P22303 whole entry): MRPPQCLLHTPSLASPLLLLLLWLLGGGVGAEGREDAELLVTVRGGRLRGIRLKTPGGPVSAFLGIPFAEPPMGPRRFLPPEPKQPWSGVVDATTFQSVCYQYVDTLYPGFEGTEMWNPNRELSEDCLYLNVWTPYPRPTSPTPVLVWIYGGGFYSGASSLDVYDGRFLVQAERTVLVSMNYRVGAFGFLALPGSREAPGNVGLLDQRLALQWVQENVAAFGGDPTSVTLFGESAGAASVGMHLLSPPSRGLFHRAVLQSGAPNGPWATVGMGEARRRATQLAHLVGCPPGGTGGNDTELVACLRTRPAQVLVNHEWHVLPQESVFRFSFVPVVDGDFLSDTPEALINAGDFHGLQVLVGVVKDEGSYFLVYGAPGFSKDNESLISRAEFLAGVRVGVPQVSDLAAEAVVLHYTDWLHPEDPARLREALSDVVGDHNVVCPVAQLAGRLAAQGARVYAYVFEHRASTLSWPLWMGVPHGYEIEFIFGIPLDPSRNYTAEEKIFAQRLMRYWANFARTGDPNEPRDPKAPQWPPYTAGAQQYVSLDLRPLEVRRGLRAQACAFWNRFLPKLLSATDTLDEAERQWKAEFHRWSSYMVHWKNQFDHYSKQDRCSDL

[4] = biological target: T3, Acetylcholinesterase; assay: Inhibition of AchE (unknown origin) using acetylthiocholine iodide as substrate preincubated for 15 mins followed by substrate addition and measured upto 4 mins by Ellman's spectrophotometric method
[5] = biological target: T2, Amine oxidase [flavin-containing] B; assay: Inhibition of human MAO-B using tyramine as substrate preincubated for 10 mins followed by substrate addition and measured after 30 mins by fluorometric method
[6] = biological target: T2, Amine oxidase [flavin-containing] B; assay: Inhibition of human MAO-B assessed as recovery of enzyme activity by dialysis method; set-up: scale not given: the % may be the effect or the level left
[7] = biological target: T1, Amine oxidase [flavin-containing] A; assay: Inhibition of human MAO-A using tyramine as substrate preincubated for 10 mins followed by substrate addition and measured after 30 mins by fluorometric method
[8] = biological target: T3, Acetylcholinesterase; assay: Inhibition of human AchE expressed in human HEK293 cells using acetylthiocholine as substrate preincubated for 10 mins followed by substrate addition and measured after 5 to 8 mins by DTNB based Ellman's spectrophotometric method; format: cell-based
[9] = Antioxidant activity assessed as trolox equivalent of ORAC radical scavenging activity incubated for 15 mins by ORAC-fluorescein assay; format: functional
[10] = biological target: Cholinesterase (Equus caballus, UniProt P81908); assay: Inhibition of equine serum BuchE using butyrylthiocholine iodide as substrate preincubated for 10 mins followed by substrate addition and measured after 20 mins by DTNB based Ellman's method
Chain of Cholinesterase (P81908 whole entry): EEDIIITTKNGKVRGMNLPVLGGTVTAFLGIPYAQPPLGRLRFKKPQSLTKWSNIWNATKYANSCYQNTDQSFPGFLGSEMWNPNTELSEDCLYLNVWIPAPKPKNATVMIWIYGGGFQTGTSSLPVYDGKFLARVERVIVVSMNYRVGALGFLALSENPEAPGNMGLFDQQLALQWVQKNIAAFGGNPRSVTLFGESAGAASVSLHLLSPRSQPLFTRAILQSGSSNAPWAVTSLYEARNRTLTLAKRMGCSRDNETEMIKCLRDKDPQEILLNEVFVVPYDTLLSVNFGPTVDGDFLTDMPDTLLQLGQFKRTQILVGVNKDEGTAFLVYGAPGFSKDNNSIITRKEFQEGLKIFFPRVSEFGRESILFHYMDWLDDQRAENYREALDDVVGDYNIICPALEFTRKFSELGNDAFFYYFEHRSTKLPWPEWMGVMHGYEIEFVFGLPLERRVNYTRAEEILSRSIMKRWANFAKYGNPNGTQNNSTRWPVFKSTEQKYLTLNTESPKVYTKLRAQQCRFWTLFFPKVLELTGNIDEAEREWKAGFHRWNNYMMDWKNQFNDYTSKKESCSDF

[11] = biological target: T2, Amine oxidase [flavin-containing] B; assay: Inhibition of human MAO-B using kynuramine as substrate preincubated for 5 mins followed by substrate addition and measured after 30 mins by spectroscopic analysis
[12] = biological target: T1, Amine oxidase [flavin-containing] A; assay: Inhibition of human MAO-A using kynuramine as substrate preincubated for 5 mins followed by substrate addition and measured after 30 mins by spectroscopic analysis
[13] = biological target: Amyloid-beta precursor protein (Homo sapiens) (UniProt P05067); assay: Inhibition of Amyloid beta (1 to 42) (unknown origin) self aggregation and at 20 uM and measured upto 24 hrs by ThT-based fluorimetric assay
Chain of Amyloid-beta precursor protein (Homo sapiens) (P05067 whole entry): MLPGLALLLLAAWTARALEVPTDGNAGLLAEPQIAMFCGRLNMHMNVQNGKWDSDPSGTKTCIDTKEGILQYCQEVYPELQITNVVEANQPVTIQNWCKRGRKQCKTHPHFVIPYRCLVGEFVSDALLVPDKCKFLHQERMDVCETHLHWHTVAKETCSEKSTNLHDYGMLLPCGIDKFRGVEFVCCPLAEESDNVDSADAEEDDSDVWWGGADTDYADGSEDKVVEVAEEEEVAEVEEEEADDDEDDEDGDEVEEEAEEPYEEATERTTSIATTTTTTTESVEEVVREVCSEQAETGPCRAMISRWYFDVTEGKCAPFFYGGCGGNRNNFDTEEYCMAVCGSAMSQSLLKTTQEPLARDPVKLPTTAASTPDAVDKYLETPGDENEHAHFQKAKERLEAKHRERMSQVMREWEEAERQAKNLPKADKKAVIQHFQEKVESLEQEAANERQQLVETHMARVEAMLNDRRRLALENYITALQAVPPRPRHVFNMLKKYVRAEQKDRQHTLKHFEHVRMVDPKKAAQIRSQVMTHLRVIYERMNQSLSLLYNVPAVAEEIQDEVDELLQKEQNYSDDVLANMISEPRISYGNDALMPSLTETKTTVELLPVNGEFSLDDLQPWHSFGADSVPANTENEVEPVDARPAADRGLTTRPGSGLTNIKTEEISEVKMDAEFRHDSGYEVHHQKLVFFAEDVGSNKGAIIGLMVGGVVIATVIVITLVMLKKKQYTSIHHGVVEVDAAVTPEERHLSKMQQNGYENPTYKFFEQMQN

[14] = biological target: Acetylcholinesterase (Electrophorus electricus, UniProt O42275); assay: Inhibition of electric eel AChE using acetylthiocholine iodide as substrate preincubated for 5 mins followed by substrate addition and measured upto 7.5 mins by Ellman's method
Chain of Acetylcholinesterase (Electrophorus electricus, UniProt O42275) (O42275 whole entry): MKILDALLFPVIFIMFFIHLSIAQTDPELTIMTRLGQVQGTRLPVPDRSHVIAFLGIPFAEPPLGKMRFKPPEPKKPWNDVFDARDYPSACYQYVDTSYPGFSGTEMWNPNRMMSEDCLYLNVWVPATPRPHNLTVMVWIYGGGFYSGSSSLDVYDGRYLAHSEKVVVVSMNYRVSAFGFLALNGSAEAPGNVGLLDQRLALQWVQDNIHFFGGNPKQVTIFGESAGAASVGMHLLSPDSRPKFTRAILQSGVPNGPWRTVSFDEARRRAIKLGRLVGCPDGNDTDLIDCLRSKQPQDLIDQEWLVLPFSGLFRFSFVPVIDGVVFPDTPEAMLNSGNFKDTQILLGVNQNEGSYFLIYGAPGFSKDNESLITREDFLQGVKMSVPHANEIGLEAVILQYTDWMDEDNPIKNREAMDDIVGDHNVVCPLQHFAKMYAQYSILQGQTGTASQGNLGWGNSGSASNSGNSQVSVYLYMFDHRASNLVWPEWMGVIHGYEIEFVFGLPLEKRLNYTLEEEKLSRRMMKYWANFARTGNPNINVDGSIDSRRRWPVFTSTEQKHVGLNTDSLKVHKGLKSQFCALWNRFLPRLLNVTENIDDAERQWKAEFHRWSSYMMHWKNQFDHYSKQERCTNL

O=C(OCc1ccc(Cl)cc1)c1coc2ccccc2c1=O
IC50 [1]: 19 µM | IC50 [2]: 10 µM

COc1ccc2c(=O)cc(C(=O)NCCN3CCCCC3)oc2c1
IC50 [3]: 90 nM

CCOP(=O)(OCC)C(NCCc1ccc(OC)cc1)c1coc2ccccc2c1=O (centres undefined)
IC50 [4]: 100 nM

Cc1ccc(NC(=O)c2c(OCc3ccccc3)ccc3c(=O)c(C)c(C)oc23)cc1
IC50 [5]: 100 nM | Activity [6]: 70% | IC50 [7]: 4 µM

COc1ccc2[nH]cc(CCNC(=O)CN(CCCCC3CCN(Cc4ccccc4)CC3)C(=O)c3cc(=O)c4ccccc4o3)c2c1
IC50 [8]: 2000 nM | Activity [9]: 3.04 equiv | IC50 [10]: 12 nM | IC50 [11]: 21 µM | IC50 [12]: 3 µM

Cc1ccc(C#CCOc2ccccc2/C=C/c2cc(=O)c3ccccc3o2)cc1
inhibition [13]: 66% | IC50 [14]: 3 µM
